{"source": "patent US20260274810A1", "about": "“NOVEL MITOFUSIN INHIBITORS” (ALBERT EINSTEIN COLLEGE OF MEDICINE, priority 2023, published 2026)", "key": {"MEFs [1]": {"system": "MEFs", "test": "Metabolomics (TCA cycle, NAD/NADH)", "format": "cell-based, mouse", "method": "Metabolomics. MEFs were treated with MASM7 and MFI8. Cells were harvested using a cell scraper and centrifuged at 1200 rpm in 4° C. for 3 min. Each cell pellet sample was suspended into 250 to 700 μL of 80% aqueous methanol in an Eppendorf tube. The samples were vortex mixed for 15 s and sonicated in an ice-water bath for 5 min, followed by centrifugal clarification at 15,000 rpm and 5° C. in an Eppendorf 5424R centrifuge. The clear supernatants were collected. A standard stock solution of TCA cycle carboxylic acids, NAD and NADH was prepared in 80% methanol as S1. This standard solution S1 was serially diluted 1 to 4 (v/v) with the same solvent to make standard solutions S2 to S10. 20 μL of each standard solution and an aliquot of the clear supernatant from each cell was mixed with 20 μL of an internal standard solution containing 9 ^13C- or deuterium labeled analogues of the TCA cycle carboxylic acids (except isocitric acid), 20 μL of 200 mM 3-NPH solution and 20 μL of 150 mM of EDC solution. The mixtures were allowed to react at 30° C. for 30 min. After reaction, 120 μL of water was added to each solution. 10 μL of the resultant solutions was injected into a C18 UPLC column to quantitate the TCA cycle carboxylic acids by UPLC-MRM/MS with (−) ion detection, according to the procedure we described in a publication."}, "cells": {"system": "cells", "test": "Cell viability assay (CellTiter-Glo)", "format": "cell-based", "conditions": "72 hours", "method": "Cell viability assay. Cells (5×10^3 cells/well) were seeded in a 96-well white plate and treated with serial dilutions of MASM7 or MFI8. Cell viability was assayed after 72 hrs by addition of CellTiter-Glo reagent according to the manufacturer's protocol (Promega). Luminescence was measured using a F200 PRO microplate reader (TECAN). Viability assays were performed in at least triplicate and the data normalized to vehicle-treated control wells. Dilutions of MASM7 or MFI8 were performed using a TECAN D300e Digital Dispenser from 10 mM stocks."}, "MEFs [2]": {"system": "MEFs", "test": "Mitochondrial membrane potential (TMRE)", "format": "cell-based, mouse", "method": "Mitochondrial depolarization assay (mtΔΨ). MEFs (10^4 cells/well) were seeded in a 96-well black plate and treated with MASM7 or MFI8 for 6 hrs. Following treatments, cells were stained with 250 nM TMRE (Sigma; Cat. 87917) for 20 min at 37° C. Subsequently, cells were washed with thrice with PBS. Fluorescence intensity was detected by a M100 microplate reader (TECAN, Ex: 540 nm/Em: 579 nm)."}, "MOLM13 cells": {"system": "MOLM13 cells", "test": "Caspase 3/7 activation with AMG-176", "format": "cell-based", "conditions": "increasing concentrations of AMG-176 and MFI8", "method": "(§1) Caspase-3/7 activation assay. Cells (5×10^3 cells/well) were seeded in a 96-well white plate and treated with MASM7, MFI8. Caspase 3/7 activation was measured after 6 hr by addition of the Caspase-Glo 3/7 reagent according to the manufacturer's protocol (Promega). Luminescence was detected by a F200 PRO microplate reader (TECAN). Caspase assays were performed in at least triplicate and the data normalized to vehicle-treated control wells. Dilutions of MASM7 or MFI8 were performed using a TECAN D300e Digital Dispenser from 10 mM stocks."}, "[3]": {"system": "caspase-3/7 in U2OS cells", "test": "Caspase-3/7 activation assay", "format": "cell-based", "method": "as §1"}, "U2OS cells [4]": {"system": "U2OS cells", "test": "DNA damage, γH2AX immunofluorescence", "format": "cell-based", "method": "(§2) Immunofluorescent analysis and microscopy. Cells were treated with MASM7, MFI8 and or Q-VD-OPh at ~70% confluence for 6 h. After treatments, cells were washed with PBS and fixed with 4% PFA for 15 min. Then cells were permeabilized with 0.1% Triton X-100 in PBS for 10 min. Cells were blocked with 5% BSA in PBS-T and incubated overnight with primary antibodies as indicated; γH2AX (Sigma; 05-636, 1:100 dilution). After incubation with primary antibodies, cells were washed with PBS and incubated with the appropriate mouse secondary antibody (ThermoFisher Scientific; A-11001) in the blocking solution. After PBS washes, coverslips were dipped in water and mounted on glass slides using Vectashield containing DAPI (Vector laboratories). Images were taken with Leica SP5 inverted confocal microscope. Data were analyzed with ImageJ."}, "MEFs [5]": {"system": "MEFs", "test": "DNA damage, γH2AX immunofluorescence", "format": "cell-based, mouse", "method": "as §2"}, "U2OS cells [6]": {"system": "U2OS cells", "test": "Cell death with BV6", "format": "cell-based", "method": "(§3) Cell death assay. Cells (2×10^5 cells/well) were seeded in a 6-well plate and treated with the indicated drugs for 6 hours. Cells were dissociated using Accutase (Thermo Fisher; Cat. #00-4555-56) in order to avoid accidental exposure of phosphatidylserine on the outer plasma membrane. Cell death was evaluated with Dead Cell Apoptosis Kit with Annexin V Alexa Fluor™ 488 & Propidium Iodide (Thermo Fisher; Cat. #V13241) according to manufacturer's protocol. Data was acquired by BD LSRII flow cytometer system using BD FACSDiva software. Data was analyzed by FlowJo (BD)."}, "THP-1 cells": {"system": "THP-1 cells", "test": "Cell death with BV6", "format": "cell-based", "method": "as §3"}, "MEFs [7]": {"system": "MEFs", "test": "Mitochondrial aspect ratio (Mito AR), live cell imaging", "protocol": "Live cell imaging. MEFs were seeded on chamber slides (MatTek Corporation: 35 mm dishes, No. 1.5, 14 mm glass diameter) at ~70% confluence. […] Images were taken with Leica SP5 inverted confocal microscope. Data were analyzed with Image J software. >200 mitochondria were measured per condition in mitochondrial aspect ratio.\nMeasurement of mitochondrial aspect ratio (Mito AR). Images that depict stained mitochondria with mitotracker green were analyzed using FIJI We measured for each mitochondrion its length and width. Then, we divided the length by the width for each mitochondrion to get its mitochondrial aspect ratio. >200 mitochondria were measured per treatment.\nMEFs were seeded on chamber slides (MatTek Corporation: 35 mm dishes, No. 1.5, 14 mm glass diameter) at ~70% confluence. Cells were treated with compounds. Then, cells were stained with MitoTracker Green (200 nM, Invitrogen) for 20 min at 37° C. After treatments, media was replaced with FluoroBrite™ DMEM (Invitrogen) supplemented with 10% FBS, 100 U ml^−1 penicillin/streptomycin, 2 mM L-glutamine and compound prior image acquisition. Images were taken with Leica SP5 inverted confocal microscope. Data were analyzed with Image J software. >200 mitochondria were measured per condition in mitochondrial aspect ratio. Measurement of mitochondrial aspect ratio (Mito AR). Images that depict stained mitochondria with mitotracker green were analyzed using FIJI software. Each mitochondrion was measured for its length and width. Then, the length was divided by the width for each mitochondrion to get its mitochondrial aspect ratio. >200 mitochondria were measured per treatment."}, "MEFs [8]": {"system": "MEFs", "test": "Mitochondrial respiration in cellulo (OCR)", "format": "cell-based, mouse", "conditions": "WT MEFs; MASM7 1 μM or MFI8 20 μM, 6 hrs", "method": "Mitochondrial respiration in cellulo. Mitochondrial oxygen consumption rates (OCR) were assessed using a XF24 Analyzer (Seahorse Biosciences, Billerica MA, USA). In brief, 3×10^4 MEFs were cultured in a XF24 cell culture microplate containing DMEM supplemented with 10% fetal bovine serum. Cells were treated with MASM7 (1 μM) or MFI8 (20 μM) 6 hrs prior to OCR analysis. Mitochondrial respiration was assessed by the sequential addition of oligomycin (1 μM), carbonyl cyanide-4-(trifluoromethoxy)phenylhydrazone (FCCP, 2 μM) and rotenone (1 μM)-antimycin (1 μM) as previously reported. OCR was normalized to cell number or total protein content per well for each condition tested."}, "[9]": {"conditions": "MFN1/MFN2 DKO MEFs reconstituted with WT MFN2"}}}
{"smiles": "Cc1cccc(NC(C)c2cc(Cl)ccc2O)c1C", "note": "(stereo not shown) [MFI8]", "values": [{"measurement": "metabolites of the TCA cycle", "setting": "MEFs [1]", "result": "markedly reduced several metabolites such as malate, oxaloacetate, and α-ketoglutarate"}, {"measurement": "total NAD+/NADH ratio", "setting": "MEFs [1]", "result": "decreased the total NAD^+/NADH ratio"}, {"measurement": "cellular viability", "setting": "cells", "result": "neither MFI8 nor MASM7 decreased cellular viability"}, {"measurement": "mitochondrial membrane potential", "setting": "MEFs [2]; [9]", "result": "significantly decreased mitochondrial membrane potential"}, {"measurement": "mitochondrial membrane potential", "setting": "MEFs [2]; WT MEFs, 6 hrs", "result": "concentration responsively decreased mitochondrial membrane potential"}, {"measurement": "caspase 3/7 activation in combination with AMG-176", "setting": "MOLM13 cells", "result": "sensitizes cells to caspase activation in response to BH3 mimetic (MCL-1 inhibitor) AMG-176 treatment"}, {"measurement": "caspase-3/7 activation", "setting": "[3]", "result": "induced caspase-3/7 activation"}, {"measurement": "DNA damage", "setting": "U2OS cells [4]; U2OS cells", "result": "induced DNA damage in U2OS cells"}, {"measurement": "DNA damage", "setting": "U2OS cells [4]; U2OS, co-treatment with pan-caspase inhibitor Q-VD-OPh", "result": "abolished the capacity of the latter to induce DNA damage"}, {"measurement": "γH2AX foci / DNA damage", "setting": "MEFs [5]; MFN1/MFN2 DKO MEFs", "result": "not in MFN1/MFN2 DKO MEFs"}, {"measurement": "γH2AX foci / DNA damage", "setting": "MEFs [5]; WT MEFs, 6 h", "result": "increased γH2AX foci"}, {"measurement": "cell death in combination with BV6", "setting": "U2OS cells [6]", "result": "synergistically induce cell death"}, {"measurement": "cell death in combination with BV6", "setting": "THP-1 cells", "result": "synergistically induce cell death"}, {"measurement": "mitochondrial aspect ratio", "setting": "MEFs [7]; [9]", "result": "significantly decreased mitochondrial aspect ratio"}, {"measurement": "IC50", "setting": "MEFs [7]; Mus musculus, 6 h, read-out: IC50 (decrease of Mito AR)", "result": 4.06, "unit": "µM"}, {"measurement": "mitochondrial aspect ratio", "setting": "MEFs [7]; co-treated with MASM7 in MEFs", "result": "reduced mitochondrial aspect ratio"}, {"measurement": "mitochondrial aspect ratio", "setting": "MEFs [7]; double knockout of MFN1 and MFN2", "result": "completely abolished MFI8 from reducing mitochondrial aspect ratio"}, {"measurement": "mitochondrial aspect ratio", "setting": "MEFs [7]; either MFN1 or MFN2 knocked out", "result": "still capable of reducing mitochondrial aspect ratio"}, {"measurement": "respiration and mitochondrial ATP production", "setting": "MEFs [8]", "result": "reduced respiration and mitochondrial ATP production"}]}
